Counter-ions that a name gives are not always drawn. Like-named read-outs stand apart in the source and are kept apart here.
How the values were obtained:
pH of chemical solution = assay type: physicochemical
[1] = Absorbance of chemical solution at 400 nm (OD400); assay type: physicochemical
bovine coagulated blood = assay: Decoloring screening: heme eluted from PFA-fixed bovine coagulated blood, absorbance of supernatant; details: Table 2, 10 wt % aqueous solution, 37° C. overnight; for 700 nm calibrated 420 nm Average: decoloring activity OD420-OD700 of supernatant
Method: A high-throughput screening system for evaluating the decoloring ability of various compounds was constructed. The screening system involved adding an aqueous solution of each compound to bovine coagulated blood and then measuring the absorbance of heme collected in the supernatant.
Specifically, to bovine blood, an equal amount of 8% PFA solution was added, and reacted at 4° C. overnight. The mixed liquid was centrifuged at 1500×g for 5 minutes, and the supernatant containing PFA was discarded. Then, the same amount of PBS as the original volume of blood was added to prepare a coagulated blood sample. To 150 μL of 10 wt % aqueous solution of each compound, 50 μL of the coagulated blood sample was added, and reacted at 37° C. overnight. The reaction solution was centrifuged at 1500×g for 5 minutes, and then 100 μL of the supernatant was added to a plate so as to be subjected to absorbance measurement. A sample which is suspended in water instead of being dissolved in the water has a weak decoloring effect, but none the less has a high absorbance value. […]

mouse hemisphere = assay: Delipidation and clearing of mouse hemisphere; details: basic chemicals with pH of 11 to 12; 10 wt %, 37° C., 3 days, then CUBIC-2A
Method: Subsequently, the delipidation efficiency of the series of compounds in mammalian tissue was examined. […] The transmittance of the brain tissue was measured, and then the brain tissue was washed with PBS and was disrupted. […] It was thus shown that the above basic chemicals and some neutral chemicals were better than the detergents from the viewpoint of permeability with respect to tissue. […] Subsequently, the mouse hemisphere was subjected to refractive index adjustment with CUBIC-2A. […] Accordingly, #0414 (N-butyldiethanolamine) was selected as a highly-efficient delipidation chemical.

mouse spleen = assay: Decoloring of mouse spleen (OD420 of supernatant, transmissive image); details: 10 wt % solution, 37° C. overnight
mouse brain = assay: Swelling and clearing of delipidated mouse brain; details: brain delipidated with CUBIC-1, shaken 3 days
[2] = Table 2, absorbance of chemical solution at 400 nm

Molecule `CNCC(O)c1cccc(O)c1.Cl` (racemic) [#1142, DL-Phenylephrine hydrochloride] has a pH (pH of chemical solution) of 6.7 and an OD400 [1] of 0.060.

In the case of `Cl.O=C(O)CCP(CCC(=O)O)CCC(=O)O` [#0197, Tris(2-carboxyethyl)phosphine hydrochloride], the pH (pH of chemical solution; Table 2, chemical solution) is reported as 2.3 and the 400 nm [1, 2] is reported as 0.047.

`CN(C)CCSSCCN(C)C` [#0295, Bis(2-dimethylaminoethyl) disuflide dihydrochloride] showed a pH (pH of chemical solution; Table 3) of 5.3 and an OD400 ([1]; Table 3) of 0.047.

Work on `CCCC[N+](CCCC)(CCCC)Cc1ccccc1.[Cl-]` [#0307, Benzyltributylammonium chloride] yielded a pH (pH of chemical solution; Table 3) of 7.0 and an OD400 ([1]; Table 3) of 0.048.

For `CCCCCCCCCCCCCC[N+](C)(C)Cc1ccccc1` [#0362, Benzyldimethyltetradecylammonium chloride hydrate], the pH (pH of chemical solution; Table 2, chemical solution) was 6.6, the 400 nm [1, 2] was 0.053 and the “Integrated value 500-700 nm Average” value (bovine coagulated blood) was 1.74. The “700 nm calibrated 420 nm Average” value (bovine coagulated blood) was 2.13.

`CN(CCCN)CCCN` [#0380, 3,3′-Diamino-N-methyldipropylamine] showed a pH (pH of chemical solution; Table 2, chemical solution) of 13.0 and a 400 nm [1, 2] of 0.065.

In the case of `OCCNCc1ccccc1` [#0389, N-Benzylethanolamine], the “transparency of mouse hemispheres” value (mouse hemisphere) is reported as “selected”.

For `NCC1CCOCC1` [#0407, 4-Aminomethyltetrahydropyran], the 400 nm [1, 2] was 0.049.

For `CCCCN(CCO)CCO` [#0414, N-Butyldiethanolamine], the “transparency of mouse hemispheres” value (mouse hemisphere) was “selected”.

For `[Cl-].c1ccc(C[P+](c2ccccc2)(c2ccccc2)c2ccccc2)cc1` [#0425, Benzyltriphenylphosphonium chloride], the pH (pH of chemical solution; Table 2, chemical solution) was 9.3 and the 400 nm [1, 2] was 0.048.

`CC(C)(C)CC(C)(C)c1ccc(OCCOCC[N+](C)(C)Cc2ccccc2)cc1` [#0441, Benzethonium chloride] showed a pH (pH of chemical solution) of 6.4 and a 400 nm [1] of 0.049.

For `C1CCC2=NCCCN2CC1` [#0594, 1,8-Diazabicyclo[5.4.0]-7-undecene], the pH (pH of chemical solution; Table 2, chemical solution) was 13.5 and the 400 nm [1, 2] was 0.05.

With `CCCCCCCCCCCC[n+]1ccccc1` [#0635, 1-Dodecylpyridinium chloride] the “Integrated value 500-700 nm Average” value (bovine coagulated blood) was 3.67 and the “700 nm calibrated 420 nm Average” value (bovine coagulated blood) was 3.66.

Work on `Cc1cc(=O)n(-c2ccccc2)n1C` [#0640, 2,3-Dimethyl-1-phenyl-5-pyrazolone] yielded a pH (pH of chemical solution; Table 2, chemical solution) of 7.5, a pH (pH of chemical solution; Table 3) of 7.5 and a 400 nm [1, 2] of 0.048. It also gave an OD400 ([1]; Table 3) of 0.048.

In the case of `C[n+]1ccc(-c2cc[n+](C)cc2)cc1` [#0652, 1,1′-Dimethyl-4,4′-bipyridinium dichloride], the pH (pH of chemical solution; Table 2, chemical solution) is reported as 6.0 and the 400 nm [1, 2] is reported as 0.082.

`CCC(N)CCN` (centres unmarked) [#0678, 1,3-Diaminopentane] gave a 400 nm [1, 2] of 0.048.

In the case of `CCCCCCCCCCCC[N+](C)(C)CCCS(=O)(=O)O` [#0694, Dodecyldimethyl(3-sulfopropyl)ammonium hydroxide], the pH (pH of chemical solution; Table 2, chemical solution, listed as #0661) is reported as 6.5, the 400 nm [1, 2] is reported as 0.55 and the 400 nm ([1]; Table 2, absorbance of chemical solution at 400 nm, listed as #0661) is reported as 0.051.

Molecule `NCCCNCCCN` [#0785, 3,3′-Diaminodipropylamine] has a pH (pH of chemical solution; Table 2, chemical solution) of 13.8, a pH (pH of chemical solution; Table 3) of 13.8 and a 400 nm [1, 2] of 0.05. The OD400 ([1]; Table 3) was 0.05.

In the case of `CN(C)CCOC(c1ccccc1)c1ccccc1.Cl` [#0909, Diphanhydramine hydrochloride], the pH (pH of chemical solution; Table 3) is reported as 7.0 and the OD400 ([1]; Table 3) is reported as 0.048.

With `CCn1ccnc1` [#0938, 1-Ethylimidazole] the “mouse spleen decoloring activity” value (mouse spleen) was “highest mouse spleen decoloring activity”.

Work on `NC[C@H](O)[C@@H](O)[C@H](O)[C@H](O)CO` [#0956, D-Glucoomine (FocusClear ™), reference compound] yielded an OD400 ([1]; Table 3) of 0.280.

Molecule `CCCCCCCCCCCC[N+](C)(C)C` [#1021, Dodecyltrimethylammonium chloride] has a pH (pH of chemical solution; Table 2, chemical solution) of 7.5 and a 400 nm [1, 2] of 0.048.

In the case of `OCCN1CC1` [#1061, 1-(2-Hydroxyethyl)ethyleneimine], the pH (pH of chemical solution; Table 2, chemical solution) is reported as 13.1 and the 400 nm [1, 2] is reported as 0.048.

In the case of `NCC(O)CN` [#1062, 1,3-Diamino-2-propanol], the “Integrated value 500-700 nm Average” value (bovine coagulated blood) is reported as 0.50.

Work on `c1cnccn1` [#1085, Pyrazine] yielded a pH (pH of chemical solution; Table 2, chemical solution) of 8.6 and a 400 nm [1, 2] of 0.051.

For `C1CCC2=[N+](CC1)CCCN2.O=C1N=C([O-])c2ccccc21` [#1181, Phtalimide DBU salt], the pH (pH of chemical solution; Table 3) was 6.0 and the OD400 ([1]; Table 3) was 0.049.

For `CCCCCCCCCCCCCCCC[N+](C)(C)C` [#1235, Hexadecyltrimethylammonium Chloride], the pH (pH of chemical solution) was 6.6 and the 400 nm [1] was 0.048.

Molecule `CC(CN)CCCN` (centres unmarked) [#1267, 2-Methyl-1,5-diaminopentane] has a pH (pH of chemical solution; Table 2, chemical solution) of 12.8.

In the case of `CNC(=O)c1cccnc1` [#1283, N-Methylnicotinamide], the OD400 ([1]; Table 3) is reported as 0.003 and the “700 nm calibrated 420 nm Average” value (bovine coagulated blood) is reported as 2.96.

With `c1c[nH]cn1` [#1352, imidazole] the “swelling of mouse brain” value (mouse brain) was “high-degree of swelling”.

For `C[C@H](CCC(=O)[O-])[C@H]1CC[C@H]2[C@@H]3CC[C@@H]4C[C@H](O)CC[C@]4(C)[C@H]3C[C@H](O)[C@]12C.[Na+]` [#1507, Sodium deoxycholate], the pH (pH of chemical solution; Table 2, chemical solution, listed as #0562) was 8.3.

In the case of `CCN(CC)CCO` [#1575, 2-Diethylaminoethanol], the pH (pH of chemical solution; Table 2, chemical solution) is reported as 12.8 and the 400 nm [1, 2] is reported as 0.06.

Molecule `Cc1cccc(C)c1NC1=NCCCS1.Cl` [#1612, Xylazine hydrochloride] has a pH (pH of chemical solution; Table 3) of 6.8 and an OD400 ([1]; Table 3) of 0.063.

`C[N+](C)(C)Cc1ccccc1.[OH-]` [#03887, Benzyltrimethylammonium hydroxide] showed a pH (pH of chemical solution; Table 2, chemical solution, listed as #0398) of 12.9 and a 400 nm [1, 2] of 0.054.

“Dodacene-1 LAS (JIS K 3361-1990) [#0672]” showed a pH (pH of chemical solution; Table 2, chemical solution) of 5.9 and a 400 nm [1, 2] of 0.081.

For Hydrazine carbonate [#1052], the pH (pH of chemical solution) was 10.2 and the OD400 [1] was 0.047.

In the case of Tween ® 40 [#1465], the pH (pH of chemical solution; Table 2, chemical solution) is reported as 6.4 and the 400 nm [1, 2] is reported as 0.083.
